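These data come from cells grown in 96-well plates and exposed to compound for 48 hours at five concentrations. GI50 is the concentration that inhibits growth by half.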 Calls of active or inactive are those of the source. Rule as the data show it: active = GI50 up to about 1.1 µM and inactive = higher. Numbered stars: 1 amine (or outer) side, 2 acyl side, 3 side chain; on linkers, the order of the positions; unused ones are H or OH. Square brackets hold non-standard residues; d marks the D form. Peptide text beside a SMILES is read from it. * marks the point of attachment. X30 = CC(=O)N(C)SCC(N[*:1])C(=O)[*:2]; Cbz = O=C(OCc1ccccc1)*; Bn = c1ccc(C*)cc1
Tests used:
Assay in all cases: inhibition of tumour cell growth, NCI panel, 48 h
786-0 = system: 786-0
A549 = system: A549
ACHN = system: ACHN
CAKI-1 = system: CAKI-1
COLO 205 = system: COLO 205
DU-145 = system: DU-145
EKVX = system: EKVX
HCC 2998 = system: HCC 2998
HCT-15 = system: HCT-15
HT-29 = system: HT-29
KM12 = system: KM12
LOX IMVI = system: LOX IMVI
M14 = system: M14
MCF7 = system: MCF7
MDA-MB-231 = system: MDA-MB-231
OVCAR-5 = system: OVCAR-5
U-251 = system: U-251
UO-31 = system: UO-31
NCI-H460 = system: NCI-H460

Row | Compound | GI50 (786-0) | GI50 (A549) | GI50 (ACHN) | GI50 (CAKI-1) | GI50 (COLO 205) | GI50 (DU-145) | GI50 (EKVX) | GI50 (HCC 2998) | GI50 (HCT-15) [µM] | GI50 (HT-29) | GI50 (KM12) | GI50 (LOX IMVI) | GI50 (M14) | GI50 (MCF7) | GI50 (MDA-MB-231) | GI50 (OVCAR-5) | GI50 (U-251) | GI50 (UO-31) | GI50 (NCI-H460)
1 | Nc1ncnc2c1ncn2C1OC(COP(=O)(O)CP(=O)(O)O)C(O)C1O (centres undefined) | > 100 µM (inactive) | > 100 µM (inactive) | > 100 µM (inactive) | > 100 µM (inactive) | 94.6 µM (inactive) | > 100 µM (inactive) | > 100 µM (inactive) | > 100 µM (inactive) | > 100 | > 100 µM (inactive) | > 100 µM (inactive) | > 100 µM (inactive) | > 100 µM (inactive) | > 100 µM (inactive) | > 10 µM (inactive) | > 100 µM (inactive) | > 100 µM (inactive) | > 100 µM (inactive) | –
2 | CC(=O)N(CCCCNC(=O)C(F)(F)F)CCCNC(=O)C(F)(F)F | > 100 µM (inactive) | > 100 µM (inactive) | > 100 µM (inactive) | – | > 100 µM (inactive) | > 100 µM (inactive) | > 100 µM (inactive) | > 100 µM (inactive) | > 100 | > 100 µM (inactive) | > 100 µM (inactive) | – | > 100 µM (inactive) | > 100 µM (inactive) | > 100 µM (inactive) | > 100 µM (inactive) | > 100 µM (inactive) | > 100 µM (inactive) | > 100 µM (inactive)
3 | O=C1OC(c2ccc(O)c(Cl)c2)(c2ccc(O)c(Cl)c2)c2ccc(Br)c3cccc1c23.O=C1OC(c2ccc(O)c(Cl)c2)(c2ccc(O)c(Cl)c2)c2cccc3c(Br)ccc1c23 | 19 µM (inactive) | 18.8 µM (inactive) | – | 14.1 µM (inactive) | 7.05 µM (inactive) | 23.7 µM (inactive) | 14 µM (inactive) | 19.3 µM (inactive) | 24.8 | 11.5 µM (inactive) | 24.1 µM (inactive) | 20 µM (inactive) | 28.8 µM (inactive) | 15.2 µM (inactive) | 14.2 µM (inactive) | 20.7 µM (inactive) | 20.1 µM (inactive) | 19.4 µM (inactive) | 16.4 µM (inactive)
4 | c1ccc(-c2cnc(-c3ccc(-c4ncc(-c5ccccc5)o4)cc3)o2)cc1 | > 100 µM (inactive) | > 100 µM (inactive) | > 100 µM (inactive) | – | > 100 µM (inactive) | > 100 µM (inactive) | > 100 µM (inactive) | > 100 µM (inactive) | > 100 | > 100 µM (inactive) | > 100 µM (inactive) | > 100 µM (inactive) | > 100 µM (inactive) | > 100 µM (inactive) | > 100 µM (inactive) | > 100 µM (inactive) | > 100 µM (inactive) | > 100 µM (inactive) | > 100 µM (inactive)
5 | CC(=O)O[C@@H]1CC[C@@]2(C)C(CC[C@H]3[C@@H]4CC[C@H]([C@H](C)CCc5nc6cc(C)ccc6[nH]5)[C@@]4(C)CC[C@@H]32)C1 (some centres undefined) | 8.69 µM (inactive) | 43.4 µM (inactive) | 99.3 µM (inactive) | > 100 µM (inactive) | 24.4 µM (inactive) | 45.7 µM (inactive) | 9.64 µM (inactive) | 71.3 µM (inactive) | 46.6 | 12.4 µM (inactive) | 12.7 µM (inactive) | 1.66 µM (inactive) | 16.1 µM (inactive) | 38.4 µM (inactive) | 18 µM (inactive) | > 100 µM (inactive) | 18.2 µM (inactive) | 6.38 µM (inactive) | –
6 | CC(=O)N(C)SCC(NC(=O)C(Cc1ccccc1)NC(=O)OCc1ccccc1)C(=O)NC(Cc1ccccc1)C(=O)NC(Cc1c[nH]c2ccccc12)C(=O)NC(CCCCNC(=O)OCc1ccccc1)C(=O)NC(C(=O)NC(CSN(C)C(C)=O)C(=O)NC(C(N)=O)C(C)OCc1ccccc1)C(C)OCc1ccccc1 (centres undefined) (Cbz-F[X30]FWK(Cbz)T(Bn)[X30]T(Bn)-NH2; configuration not given here) | > 100 µM (inactive) | > 100 µM (inactive) | > 100 µM (inactive) | – | > 100 µM (inactive) | > 100 µM (inactive) | > 100 µM (inactive) | > 100 µM (inactive) | > 100 | > 100 µM (inactive) | 40.9 µM (inactive) | 86.5 µM (inactive) | > 100 µM (inactive) | 86.5 µM (inactive) | 35.3 µM (inactive) | > 100 µM (inactive) | 70.5 µM (inactive) | > 100 µM (inactive) | > 100 µM (inactive)
7 | Cc1nc(C)c(N2CCN([N+](=O)[O-])CC2)c(O)n1 | > 100 µM (inactive) | > 100 µM (inactive) | > 100 µM (inactive) | > 100 µM (inactive) | > 100 µM (inactive) | > 100 µM (inactive) | > 100 µM (inactive) | > 100 µM (inactive) | > 100 | > 100 µM (inactive) | > 100 µM (inactive) | > 100 µM (inactive) | > 100 µM (inactive) | > 100 µM (inactive) | > 100 µM (inactive) | – | > 100 µM (inactive) | > 100 µM (inactive) | > 100 µM (inactive)
8 | Cc1cc2c(c(C(=O)NCCC(=O)N[C@@H](C)C(=O)OCc3ccccc3)c1)Oc1c(cc(C)cc1C(=O)NCCC(=O)N[C@@H](C)C(=O)OCc1ccccc1)S2 | > 100 µM (inactive) | > 100 µM (inactive) | > 100 µM (inactive) | > 100 µM (inactive) | > 100 µM (inactive) | > 100 µM (inactive) | > 100 µM (inactive) | > 100 µM (inactive) | > 100 | > 100 µM (inactive) | > 100 µM (inactive) | – | > 100 µM (inactive) | > 100 µM (inactive) | > 100 µM (inactive) | > 100 µM (inactive) | > 100 µM (inactive) | > 100 µM (inactive) | > 100 µM (inactive)
9 | CCOC(=O)c1nc2cc(F)c(N3CCOCC3)cc2[nH]c1=O | > 100 µM (inactive) | > 100 µM (inactive) | > 100 µM (inactive) | > 100 µM (inactive) | > 100 µM (inactive) | > 100 µM (inactive) | 13.9 µM (inactive) | > 100 µM (inactive) | > 100 | > 100 µM (inactive) | > 100 µM (inactive) | – | > 100 µM (inactive) | > 100 µM (inactive) | > 100 µM (inactive) | > 100 µM (inactive) | 99.1 µM (inactive) | 65.3 µM (inactive) | > 100 µM (inactive)
10 | CC(C)(Oc1ccc(-c2cccc3ccccc23)cc1)C(=O)O | > 100 µM (inactive) | 59.6 µM (inactive) | > 100 µM (inactive) | > 100 µM (inactive) | 71 µM (inactive) | > 100 µM (inactive) | > 100 µM (inactive) | > 100 µM (inactive) | 77.3 | > 100 µM (inactive) | 97.7 µM (inactive) | – | > 100 µM (inactive) | > 100 µM (inactive) | > 100 µM (inactive) | > 100 µM (inactive) | > 100 µM (inactive) | > 100 µM (inactive) | > 100 µM (inactive)

Source: ChEMBL document CHEMBL1201862, “PubChem BioAssay data set” (2004)
